# What was measured:
# Type in all cases: cell-based
# PKCα = biological target: T1, PKCα (Homo sapiens, UniProt P17252); conditions: HeLa
# T1 construct: host or cells: HeLa cells
# Method: (§1) Five EGFP-PKC isoforms (Clontech) were available for this experiment, enabling the screening of the three predominant PKC families (i.e. classical, novel and atypical PKCs). The members of the various PKC families are α, β, and γ (classical), θ (novel) and ζ (atypical).
# (§2) HeLa cells were plated out in a 24-well plate containing coverslips and transfected with PKC isoforms fused to EGFP, using a commercially available effectine-transfection kit (QIAGEN, Pty. Ltd.). Cells were exposed to the transfection reagents for 16-24 hr. Subsequently, transfected cells were treated for one hour with TPA (100 ng/mL), bryostatin-1 (5 pg/mL), PEP003 (2.25 μg/mL; 5 μM) or PEP005 ([…]) 1.5 μM). Following treatment, cells were fixed on coverslips and mounted on glass slides. The slides were subsequently examined visually by fluorescence microscopy, photographed, and over 150 cells were counted/treatment/PKC isoform. Counted cells were classified according to the localisation of the PKC-EGFP fluorescence as either cytoplasmic or plasma membrane using ImagePro™ 4.1 (FIG. 5). […] The number of these cells was also counted.
# PKCβ = biological target: T2, PKCβ (Homo sapiens, UniProt P05771); test: EGFP-PKC isoform translocation in HeLa cells
# T2 construct: host or cells: HeLa cells
# T2 sequence (P05771 whole entry, species assumed, canonical isoform): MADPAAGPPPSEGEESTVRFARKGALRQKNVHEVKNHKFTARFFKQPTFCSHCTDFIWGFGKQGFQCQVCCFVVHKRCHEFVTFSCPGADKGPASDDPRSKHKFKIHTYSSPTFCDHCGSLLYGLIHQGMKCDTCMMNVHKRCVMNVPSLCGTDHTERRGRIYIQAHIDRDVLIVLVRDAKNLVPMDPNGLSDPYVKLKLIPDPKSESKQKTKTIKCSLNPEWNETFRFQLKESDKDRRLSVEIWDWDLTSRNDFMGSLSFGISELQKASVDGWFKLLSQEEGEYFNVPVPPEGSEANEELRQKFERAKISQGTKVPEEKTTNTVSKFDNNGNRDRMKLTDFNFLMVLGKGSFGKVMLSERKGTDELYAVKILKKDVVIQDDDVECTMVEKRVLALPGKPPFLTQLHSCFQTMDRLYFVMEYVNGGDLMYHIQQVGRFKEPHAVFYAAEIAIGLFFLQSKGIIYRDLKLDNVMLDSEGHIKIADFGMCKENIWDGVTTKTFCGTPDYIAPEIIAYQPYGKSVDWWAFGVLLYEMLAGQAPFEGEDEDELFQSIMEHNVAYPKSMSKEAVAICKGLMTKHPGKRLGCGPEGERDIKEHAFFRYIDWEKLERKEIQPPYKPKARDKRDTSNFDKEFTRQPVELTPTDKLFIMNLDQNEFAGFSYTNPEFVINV
# Method: as §1
# as §2, with “counted. Results are presented as an average and standard deviation of percentages of cells (Table 1).” for “counted.”
# PKCγ = biological target: T3, PKCγ (Homo sapiens, UniProt P05129); test: EGFP-PKC isoform translocation in HeLa cells
# T3 construct: host or cells: HeLa cells
# Method: as §1
# as §2, with “counted. Results are presented as an average and standard deviation of percentages of cells (Table 1).” for “counted.”
# PKCζ = biological target: T4, PKCζ (Homo sapiens, UniProt Q05513); test: EGFP-PKC isoform translocation in HeLa cells; conditions: one hour, TPA 100 ng/mL, bryostatin-1 5 pg/mL, PEP003 2.25 μg/mL (5 μM), PEP005 670 μg/mL (1.5 μM)
# T4 construct: host or cells: HeLa cells
# T4 sequence (Q05513 1-592): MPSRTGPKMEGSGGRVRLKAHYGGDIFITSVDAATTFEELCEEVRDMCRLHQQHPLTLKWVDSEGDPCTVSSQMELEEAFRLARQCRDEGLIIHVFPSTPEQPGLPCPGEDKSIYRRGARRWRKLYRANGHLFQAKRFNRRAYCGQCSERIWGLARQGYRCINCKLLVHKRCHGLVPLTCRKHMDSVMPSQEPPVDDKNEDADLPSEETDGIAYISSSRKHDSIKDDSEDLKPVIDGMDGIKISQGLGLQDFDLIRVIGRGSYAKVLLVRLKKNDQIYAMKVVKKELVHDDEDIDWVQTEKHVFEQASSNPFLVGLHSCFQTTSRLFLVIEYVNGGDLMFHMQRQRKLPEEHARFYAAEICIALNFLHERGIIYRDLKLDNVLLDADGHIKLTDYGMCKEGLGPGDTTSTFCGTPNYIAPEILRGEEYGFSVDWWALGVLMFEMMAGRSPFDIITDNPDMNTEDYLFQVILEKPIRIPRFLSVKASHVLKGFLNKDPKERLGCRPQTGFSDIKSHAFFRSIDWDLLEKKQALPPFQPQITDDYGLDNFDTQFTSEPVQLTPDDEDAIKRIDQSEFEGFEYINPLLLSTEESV
# Method: as §1
# as §2, with “counted. Results are presented as an average and standard deviation of percentages of cells (Table 1).” for “counted.”
# PKCθ = biological target: T5, PKCθ (Homo sapiens, UniProt Q04759); test: EGFP-PKC isoform translocation in HeLa cells; conditions: one hour, TPA 100 ng/mL, bryostatin-1 5 pg/mL, PEP003 2.25 μg/mL (5 μM), PEP005 670 μg/mL (1.5 μM)
# T5 construct: host or cells: HeLa cells
# T5 sequence (Q04759 whole entry, canonical isoform): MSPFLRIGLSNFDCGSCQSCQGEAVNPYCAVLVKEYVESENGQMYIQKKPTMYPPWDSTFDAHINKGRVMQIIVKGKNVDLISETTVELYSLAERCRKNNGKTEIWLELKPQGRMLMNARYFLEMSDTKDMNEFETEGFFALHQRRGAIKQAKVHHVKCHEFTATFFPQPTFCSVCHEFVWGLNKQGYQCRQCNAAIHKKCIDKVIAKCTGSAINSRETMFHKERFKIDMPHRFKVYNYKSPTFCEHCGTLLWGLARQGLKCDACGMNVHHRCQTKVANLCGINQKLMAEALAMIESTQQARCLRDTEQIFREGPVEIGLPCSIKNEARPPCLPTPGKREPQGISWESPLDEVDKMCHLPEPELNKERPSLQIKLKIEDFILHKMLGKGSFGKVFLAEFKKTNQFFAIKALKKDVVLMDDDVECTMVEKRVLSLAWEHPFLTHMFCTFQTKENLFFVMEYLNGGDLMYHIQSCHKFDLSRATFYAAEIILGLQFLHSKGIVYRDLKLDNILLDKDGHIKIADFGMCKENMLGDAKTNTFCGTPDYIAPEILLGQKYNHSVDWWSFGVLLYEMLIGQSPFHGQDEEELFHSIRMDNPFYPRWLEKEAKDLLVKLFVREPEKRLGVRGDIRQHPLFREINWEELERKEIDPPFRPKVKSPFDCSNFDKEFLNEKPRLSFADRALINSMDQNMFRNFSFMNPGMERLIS
# Method: as §1
# as §2, with “counted. Results are presented as an average and standard deviation of percentages of cells (Table 1).” for “counted.”
# [1] = one hour, TPA 100 ng/mL, bryostatin-1 5 pg/mL, PEP003 2.25 μg/mL (5 μM), PEP005 670 μg/mL (1.5 μM)
smiles,measurement,setting,value
"CCCCCCCCCCCCCC(=O)O[C@@H]1[C@@H](C)[C@@]2(O)[C@@H](C=C(CO)C[C@]3(O)C(=O)C(C)=C[C@@H]23)C2C(C)(C)[C@@]21OC(C)=O (single isomer, unassigned) [TPA]",number of PKCα transfected cells displaying Golgi-like fluorescence,PKCα; one hour treatment,increase in the number of cells displaying Golgi-like fluorescence
same,translocation of PKCα to the plasma membrane,"PKCα; one hour, TPA 100 ng/mL, bryostatin-1 5 pg/mL, PEP003 2.25 μg/mL (5 μM)",translocated from the cytoplasm to the plasma membrane
same,number of PKCβ transfected cells with Golgi-like fluorescence,PKCβ; one hour treatment,increase in Golgi-Tike fluorescence
same,translocation of PKCβ to the plasma membrane,PKCβ; [1],translocated from the cytoplasm to the plasma membrane
same,number of PKCγ transfected cells displaying Golgi-like fluorescence,PKCγ; one hour treatment,increase in the number of cells displaying Golgi-like fluorescence
same,translocation of PKCγ to the plasma membrane,PKCγ; [1],translocated from the cytoplasm to the plasma membrane
same,translocation of PKCζ,PKCζ,fail to induce translocation
same,translocation of PKCθ,PKCθ,translocated

# From patent US20030195168A1, “Therapeutic agents - III” (priority 2000, published 2003)
